From the supplement of paper PMC11208160 come the findings set out here.
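Further: IS621 recombinase and bridge RNA in Escherichia coli cells.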

The nature of this data set: recombinant barcode read abundance after kanamycin selection (control-corrected) (log10(CPM+1)); higher = more efficient recombination; sequences stand for … in AGTGCAGAGAAAATCGGCCAGTTTTCTCTGCCTGCAGTCCGCATGCCGT…AGATTTATGCAGCGGACTGCCTTTCTCCCAAAGTGATAAACCGGACAGTATCATGGACCGGTTTTCCCGGTAATCCGTATTTGCAAGGTTGGTTTCACT; site = the 11-nt target. An outline of the steps: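 Pooled oligos, each joining a target to an IS621 bridge RNA target-binding loop, were cloned and co-electroporated with a donor plasmid into E. coli. Selective plates carried chloramphenicol/ampicillin/kanamycin and 0.1 mM IPTG, while chloramphenicol/ampicillin LB agar served as control, with two replicates of each. Recombination efficiency rests on averaged, control-corrected counts per million of barcodes at recombinant junctions, shown as log10(CPM+1).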
Turning to “TAGAAGACTTGGGTTCTAACCTGTTGCTC (site TAGAAGACTAA)”, the “recombinant barcode read abundance (log10)” value turned out to be 0.216.
With “TAGAAGACTTGGGTTCTAACCTGTTGCTC (site TAGAAGACTCA)”, the “recombinant barcode read abundance (log10)” value was 0.178.
Regarding “TAGAAGACTTGGGTTCTAACCTGTTGCTC (site TAGAAGACTGA)”, the “recombinant barcode read abundance (log10)” value was 1.44.
Regarding “TAGAAGACTTGGGTTCTAACCTGTTGCTC (site TAGAAGACTTA)”, the “recombinant barcode read abundance (log10)” value amounted to 0.0266.
The value for “TAGAAGTCTTGGGTTCTAACCTGTTGCAG (site TAGAAGTCTCT)” was 1.9.
Turning to “TAGAAGTCTTGGGTTCTAACCTGTTGCAG (site TAGATGTCTCC)”, the “recombinant barcode read abundance (log10)” value is 0.0783.
With “TAGAATCCTTGGGTTCTAACCTGTTGCAG (site TAGAATCCTAT)” the figure was 0.0897; with “TAGAATCCTTGGGTTCTAACCTGTTGCAG (site TAGAATCCTCT)”, 0.718; with “TAGAATCCTTGGGTTCTAACCTGTTGCAG (site TAGAATCCTGT)”, 0.0644.
With “TAGAATCCTTGGGTTCTAACCTGTTGCAG (site TAGAATCCTTT)” the figure was 0.072; with “TAGACATCTTGGGTTCTAACCTGTTGCGT (site CGCTTTACTCG)”, 0.125; with “TAGACATCTTGGGTTCTAACCTGTTGCGT (site TAGACATCTAC)”, 1.65.
With “TAGACTACTTGGGTTCTAACCTGTTGCTA (site TAGACTACTAA)” the figure was 0.198; with “TAGACTACTTGGGTTCTAACCTGTTGCTA (site TAGACTACTCA)”, 0.111.
Regarding “TAGACTACTTGGGTTCTAACCTGTTGCTA (site TAGACTACTGA)”, the “recombinant barcode read abundance (log10)” value was 0.0863.
With “TAGACTACTTGGGTTCTAACCTGTTGCTA (site TAGACTACTTA)” the figure was 0.268; with “TAGACTCCTTGGGTTCTAACCTGTTGCCA (site ACTTGAGCTAT)”, 0.336; with “TAGACTCCTTGGGTTCTAACCTGTTGCCA (site TAGACTCCTTG)”, 0.182.
The value for “TAGAGCTCTTGGGTTCTAACCTGTTGCGT (site TAGAACTCTAC)” was 0.246; that for “TAGAGCTCTTGGGTTCTAACCTGTTGCGT (site TAGAGCTCTAC)” was 1.25; that for “TAGATGTCTTGGGTTCTAACCTGTTGCGG (site TAGAAGTCTCT)” was 0.0755.
For “TAGATGTCTTGGGTTCTAACCTGTTGCGG (site TAGATGTCTCC)”, the “recombinant barcode read abundance (log10)” value was 2.43.
For the sequence “TAGCAATCTTGGGTTCTAACCTGTTGCTA (site GTCGTTACTAG)”, the “recombinant barcode read abundance (log10)” value came out at 0.0938.
For “TAGCAATCTTGGGTTCTAACCTGTTGCTA (site TAGCAATCTTA)”, the “recombinant barcode read abundance (log10)” value amounted to 0.0837.
With “TAGCACACTTGGGTTCTAACCTGTTGCGG (site TAGCACACTCC)” the figure was 1.21; with “TAGCACACTTGGGTTCTAACCTGTTGCGG (site TAGCCCACTCC)”, 0.112; with “TAGCACACTTGGGTTCTAACCTGTTGCGG (site TAGCGCACTCC)”, 0.291.
With “TAGCACACTTGGGTTCTAACCTGTTGCGG (site TAGCTCACTCC)” the figure was 0.00842; with “TAGCATACTTGGGTTCTAACCTGTTGCCA (site TAGCATACTAG)”, 0.445.
As to “TAGCATACTTGGGTTCTAACCTGTTGCCA (site TAGCATACTCG)”, the “recombinant barcode read abundance (log10)” value was found to be 0.0183.
For the sequence “TAGCATACTTGGGTTCTAACCTGTTGCCA (site TAGCATACTGG)”, the “recombinant barcode read abundance (log10)” value was 0.359.
“TAGCATACTTGGGTTCTAACCTGTTGCCA (site TAGCATACTTG)”: the “recombinant barcode read abundance (log10)” value stood at 0.529.
